{"source": "patent US4267185A", "about": "“Antidepressant pyrrolylpiperidines, their pharmaceutical compositions and method of use” (E. I. Du Pont de Nemours and Company, priority 1980, dated 1981)", "tested_on": "tetrabenazine-induced sedation and depression in mice", "assay": "Antagonism of tetrabenazine-induced depression in mice, orally, at 1 hour post-drug", "type": "in vivo, female white mice (Carworth CF1 S)", "details": "Mus musculus", "procedure": "This mouse test is predictive of human antidepressant response (Everett, \"The Dopa Response Potentiation Test and Its Use in Screening for Antidepressant Drugs,\" pp. 164 in \"Antidepressant Drugs\" (Proceedings of the First International Symposium), S. Garattini and M. N. G. Dukes, eds., 1967).\nGroups of 10 Carworth CF1 S female mice, 18-21 g each, were fasted 1.5 hours and were intubated with antagonist compounds at oral doses of 0, 0.33, 1, 3, 9, 27, and 81 mg/kg in 0.20 ml of 1% Methocel-1.25% Tween 80. The mice were challenged 30 minutes later with tetrabenazine (as the methanesulfonate), 32 mg/kg intraperitoneally (dissolved in 0.20 ml 0.05 M KCl at pH 2.0). One hour after antagonist (30 minutes after tetrabenazine), the mice were examined for signs of exploratory activity and ptosis (eyelid closure). Normal exploratory activity (relief from sedation) was recorded when a mouse lifted by the tail from a group of 10 in a testing box and placed on a stainless testing box lid (12.5\"×8\"with 0.33\" mesh) either turned its head horizontally 30° in both directions or moved to the edge of the screen within 10 seconds after being placed on the screen. Relief from ptosis was recorded when exactly two seconds after placing the mouse facing the observer, lid closure was less than 50% in both eyes.", "key": {"[1]": {"details": "po, 1 h, read-out: ED50 for prevention of exploratory loss"}, "[2]": {"details": "po, 1 h, read-out: ED50 for prevention of ptosis"}}, "note": "Like-named read-outs stand apart in the source and are kept apart here.", "data": [{"smiles": "CN(C)CCC=C1c2ccccc2CCc2ccccc21", "note": "[Amitriptyline, reference compound]", "values": [{"measurement": "ED50", "setting": "oral, 1 hour post-drug (30 min after tetrabenazine 32 mg/kg i.p.), exploratory activity, read-out: ED50 for prevention of exploratory loss", "value": 3.5, "unit": "mg/kg"}, {"measurement": "ED50", "setting": "oral, 1 hour post-drug (30 min after tetrabenazine 32 mg/kg i.p.), lid closure less than 50% in both eyes, read-out: ED50 for prevention of ptosis", "value": 1.4, "unit": "mg/kg"}]}, {"smiles": "CN1CCC(O)(c2cccn2C)CC1", "note": "[Example 1, 1-Methyl-4-(1-methylpyrrol-2-yl)-4-piperidinol]", "values": [{"measurement": "ED50", "setting": "[1]", "value": 1.8, "unit": "mg/kg"}, {"measurement": "ED50", "setting": "[2]", "value": 1.1, "unit": "mg/kg"}]}, {"smiles": "CN1CC=C(c2cccn2C)CC1.Cl", "note": "[Example 2, 1,2,3,6-Tetrahydro-1-methyl-4-(1-methylpyrrol-2-yl)pyridine, hydrochloride salt]", "values": [{"measurement": "ED50", "setting": "[1]", "value": 1.4, "unit": "mg/kg"}, {"measurement": "ED50", "setting": "[2]", "value": 0.8, "unit": "mg/kg"}]}]}
